Legend:
IRAK4 protein = target: T1, IRAK4 protein (Homo sapiens, UniProt Q9NWZ3); test: IRAK4 protein degradation in THP1 cells (Western blot); type: cell-based; conditions: 24 h
T1 construct: Effects of Compounds on IRAK4 Protein Degradation in THP1 Cells; endogenous in cells; host or cells: THP-1 cells
T1 sequence (Q9NWZ3 1-460): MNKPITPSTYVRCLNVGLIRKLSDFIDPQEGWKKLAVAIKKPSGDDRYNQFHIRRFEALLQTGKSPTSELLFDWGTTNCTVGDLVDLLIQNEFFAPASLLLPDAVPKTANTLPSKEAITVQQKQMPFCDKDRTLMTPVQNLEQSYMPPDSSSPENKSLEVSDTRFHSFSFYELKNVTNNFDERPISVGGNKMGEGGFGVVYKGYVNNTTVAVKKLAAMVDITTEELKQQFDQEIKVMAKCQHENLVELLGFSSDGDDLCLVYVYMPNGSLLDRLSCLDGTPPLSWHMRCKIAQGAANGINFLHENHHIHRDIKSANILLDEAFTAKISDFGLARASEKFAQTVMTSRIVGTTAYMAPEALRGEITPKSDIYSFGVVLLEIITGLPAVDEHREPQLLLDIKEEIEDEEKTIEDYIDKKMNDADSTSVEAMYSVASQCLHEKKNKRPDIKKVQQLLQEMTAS
Method: THP-1 cells were inoculated into a 96-well cell culture plate, with 5×10^4 cells and 100 μL of a culture medium per well. The cell culture plate was cultured in an incubator with 5% CO2 at 37° C. overnight. 100 nl of a well-prepared compound stock solution and a compound-free DMSO stock solution were respectively added to cells per well. The cell culture plate was incubated in an incubator with 5% CO2 at 37° C. for 24 h. One protease inhibitor tablet and one phosphatase inhibitor tablet were added to 20 mL of a cell lysis buffer, and they were gently mixed until complete dissolution. DTT at a final concentration of 200 mM was added to a 4× sample preparation buffer to prepare a 4× sample preparation working solution. 20× electrophoretic buffer was diluted to 1× with ultrapure water. 20× transfer buffer was diluted to 1× with ultrapure water, and 20% methanol was added. […] IRAK4 protein primary antibody working solution: 20 μl of IRAK4 antibody added to 20 mL of a blocking solution; β-Actin primary antibody working solution: 2 μl of beta-actin (13E5) Rabbit mAb antibody added to 20 mL of a blocking solution. IRAK4 protein secondary antibody working solution: Donkey Anti-Goat IgG H&L (HRP) diluted 1/5,000 in a blocking solution; 3-Actin secondary antibody working solution: Anti-rabbit IgG, RP-linked antibody diluted 1/10,000 in a blocking solution. The cell culture plate was centrifuged at 3,000 rpm for 3 min, and most of the culture medium was carefully pipetted. The cell plate was inverted, and centrifuged at 300 rpm for 30 s. 45 μL of a lysis buffer was added to each well. The mixture was shaken at 300 rpm for 30 s, allowed to stand on ice for 30 min, and pipetted 30 times at 20 min. 6 μL of 4× sample preparation working solution was added to 18 μL of protein supernatant for sample preparation, and the mixture was heated at 70° C. for 10 min. Remaining protein samples were stored at −80° C. In the precast gel, 8 μl of sample was loaded into each well for electrophoresis at a constant voltage of 120 V for about 60 min, transferred using a PVDF membrane at a constant current of 300 mA for 1 h, then blocked with a blocking solution at room temperature for 1 h, and incubated in a primary antibody working solution at 4° C. overnight. The membrane was washed with 1×TBST buffer for 3×10 min. The secondary antibody working solution was incubated at room temperature for 1 h. The membrane was washed with 1×TBST buffer for 3×10 min, and a chromogenic solution was used for exposure and color development.

[1] = system: secretion levels of IL-6 in PBMC cells; test: Inhibition of R848-induced IL-6 secretion in PBMC (IL-6 ELISA); type: cell-based; conditions: human PBMC, 20 h compound pre-incubation, 24 h stimulation
Method in brief: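 PBMC pre-treated with compounds (top 1 μM, 4-fold dilutions) in RPMI 1640/10% FBS for 20 h at 37 °C, then stimulated with R848 ([…] final) for another 24 h. Supernatant IL-6 by ELISA (OD450, standard curve); IC50 from dose-effect curve fit.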

Structure (SMILES): Cc1nn(C2CCC(=O)NC2=O)c2cccc(N3CC4CN(C[C@H]5CC[C@H](n6cc7cc(NC(=O)c8cnn9cccnc89)c(N8CCOCC8)cc7n6)CC5)CC4C3)c12 (stereo partly drawn) [TM-57]
- DC50 (IRAK4 protein): 3.12 nM
- IC50 [1]: 3.43 nM

Structure (SMILES): Cc1nn(C2CCC(=O)NC2=O)c2cncc(N3CCN(C[C@H]4CC[C@H](n5cc6cc(NC(=O)c7cnn8cccnc78)c(N7CCO[C@H](C)C7)cc6n5)CC4)CC3)c12 (stereo partly drawn) [TM-109]
- DC50 (IRAK4 protein): 4.67 nM

Source: patent US20260146044A1, “AROMATIC COMPOUND, PHARMACEUTICAL COMPOSITION CONTAINING SAME, AND USE THEREOF” (Increland, priority 2023, published 2026)
